Measurements taken from patent US20030068383A1, “Time release nutritional supplement” (priority 2001, published 2003).

What was measured:
[1] = Acid damage to Ribose loaded into 1% cross-linked resin with boiling water; assay type: physicochemical; settings: 5.9 grams Ribose
[2] = ingested dose, human body; cited from earlier work

Question: For `O=C[C@H](O)[C@H](O)[C@H](O)CO` [Ribose, D-Ribose], which “Fate of Ribose within the resin matrix” value ([1]; 2 grams 1% cross-linked sulfonated resin, 10 grams water preheated to boiling) is on record?
Answer: destroyed

Question: What about the “Fate of Ribose within the resin matrix” value ([1]; 2 grams sulfonated resin ion exchanged with Li or K salt, 10 grams water) of the same compound?
Answer: active and useful

Question: With `CN(CC(=O)O)C(=N)N` [creatine, Creatine] as the compound, how does the “Dose typically associated with side effects (diarrhea, gas, flatulence, nausea, stomach cramps)” value [2] read?
Answer: over 5 grams
